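Briefly, cells in 96-well plates were exposed to five compound concentrations for 48 h, and endpoints were estimated by linear interpolation. The concentration for 50% growth inhibition is given as GI50. TGI is the concentration that stops growth completely.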
Legend:
Test in all cases: DTP human tumour cell line panel, 48 h
CAKI-1 renal = tested on: CAKI-1 renal
HL-60(TB) leukemia = tested on: HL-60(TB) leukemia
IGROV1 ovarian = tested on: IGROV1 ovarian
MALME-3M melanoma = tested on: MALME-3M melanoma
OVCAR-5 ovarian = tested on: OVCAR-5 ovarian
OVCAR-8 ovarian = tested on: OVCAR-8 ovarian
RXF 393 renal = tested on: RXF 393 renal
SK-MEL-5 melanoma = tested on: SK-MEL-5 melanoma
SW-620 colon = tested on: SW-620 colon
U251 CNS = tested on: U251 CNS

SMILES	GI50 (CAKI-1 renal) [nM]	TGI (CAKI-1 renal) [nM]	GI50 (HL-60(TB) leukemia) [nM]	TGI (HL-60(TB) leukemia) [nM]	GI50 (IGROV1 ovarian) [nM]	TGI (IGROV1 ovarian) [nM]	GI50 (MALME-3M melanoma) [nM]	TGI (MALME-3M melanoma) [nM]	GI50 (OVCAR-5 ovarian) [nM]	TGI (OVCAR-5 ovarian) [nM]	GI50 (OVCAR-8 ovarian) [nM]	TGI (OVCAR-8 ovarian) [nM]	GI50 (RXF 393 renal) [nM]	TGI (RXF 393 renal) [nM]	GI50 (SK-MEL-5 melanoma) [nM]	TGI (SK-MEL-5 melanoma) [nM]	GI50 (SW-620 colon) [nM]	TGI (SW-620 colon) [nM]	GI50 (U251 CNS) [nM]	TGI (U251 CNS) [nM]
O=C(Nc1n[nH]c2cc(-c3cc(F)ccc3F)ccc12)C1CC1	> 20900	> 25000	7810	> 25000	> 25000	> 25000	14200	> 25000	> 22300	> 25000	> 22000	> 25000	17300	> 25000	8090	> 25000	10700	> 25000	15300	> 25000
Cn1c(COC(=O)NCCn2ccnc2)nc2c(N3CCOCC3)nc(-c3ccccc3)nc21	343	1550	615	2480	657	1940	1380	2720	1390	3010	913	2630	488	1800	1460	2810	226	580	1350	2870
Oc1ccc(Cl)cc1C=Nc1cnc2ccccc2c1	–	> 100000	–	34900	–	> 100000	–	> 100000	–	> 100000	–	> 100000	–	> 100000	–	> 90000	–	> 100000	–	> 70600
Cc1ccc(/C(=N/Nc2ccc([N+](=O)[O-])cc2)Sc2cc(Cl)c(C)cc2S(N)(=O)=O)cc1	1610	3270	11900	42100	2440	14600	1910	4580	2450	6160	7380	> 100000	2010	6520	1780	5560	2550	10500	4340	16700
Cn1c(COC(=O)NCCc2ccccn2)nc2c(N3CCOCC3)nc(Cl)nc21	974	2160	1170	4610	1310	2840	1770	3380	1730	3680	2380	10100	1060	2450	1740	3290	1280	2980	1630	3340

From PubChem BioAssay (NCI)
